PubChem BioAssay (NCI)
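96-well plates; 48 h exposure; 5 concentrations. Endpoints by linear interpolation between flanking doses. Not reached: highest tested concentration assigned. The concentration for 50% growth inhibition is given as GI50. TGI marks complete inhibition of growth.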

What was measured:
Assay in all cases: NCI anticancer screen, dose series, 48 h
[1] = tested on: MDA-MB-231 breast
[2] = tested on: IGROV1 ovarian
[3] = tested on: NCI-H23 lung
[4] = tested on: PC-3 prostate
[5] = tested on: MCF7 breast
[6] = tested on: UO-31 renal
[7] = tested on: M14 melanoma
[8] = tested on: CCRF-CEM leukemia
[9] = tested on: UACC-62 melanoma
[10] = tested on: A498 renal
[11] = tested on: HCC-2998 colon
[12] = tested on: SF-268 CNS
[13] = tested on: HCT-15 colon
[14] = tested on: NCI-H522 lung
[15] = tested on: HCT-116 colon
[16] = tested on: DU-145 prostate
[17] = tested on: LOX IMVI melanoma
[18] = tested on: OVCAR-4 ovarian
[19] = tested on: CAKI-1 renal
[20] = tested on: HS 578T breast
[21] = tested on: SNB-19 CNS
[22] = tested on: SF-295 CNS
[23] = tested on: TK-10 renal
[24] = tested on: SN12C renal
[25] = tested on: OVCAR-8 ovarian
[26] = tested on: HOP-62 NSCLC
[27] = tested on: SR leukemia
[28] = tested on: K-562 leukemia
[29] = tested on: HOP-92 NSCLC
[30] = tested on: EKVX NSCLC
[31] = tested on: SNB-75 CNS
[32] = tested on: MOLT-4 leukemia
[33] = tested on: NCI-H460 lung
[34] = tested on: HT29 colon
[35] = tested on: SK-MEL-28 melanoma
[36] = tested on: COLO 205 colon
[37] = tested on: UACC-257 melanoma
[38] = tested on: T-47D breast
[39] = tested on: SK-OV-3 ovarian
[40] = tested on: 786-0 renal
[41] = tested on: BT-549 breast
[42] = tested on: SW-620 colon
[43] = tested on: SK-MEL-2 melanoma
[44] = tested on: NCI/ADR-RES ovarian
[45] = tested on: KM12 colon
[46] = tested on: SK-MEL-5 melanoma
[47] = tested on: SF-539 CNS
[48] = tested on: HL-60(TB) leukemia
[49] = tested on: OVCAR-5 ovarian
[50] = tested on: MALME-3M melanoma
[51] = tested on: RPMI-8226 leukemia
[52] = tested on: RXF 393 renal
[53] = tested on: A549 NSCLC
[54] = tested on: ACHN renal
[55] = tested on: U251 CNS
[56] = tested on: NCI-H226 lung
[57] = tested on: MDA-MB-435
[58] = tested on: OVCAR-3 ovarian

COc1ccc(Cn2cc3c(c2-c2cc(OC)c(OC)c(OC)c2)CCc2c(CN4CCOCC4)noc2-3)cc1
GI50 [1]: 2810 nM
TGI [1]: > 100 µM
GI50 [2]: 871 nM
TGI [2]: > 100 µM
GI50 [3]: 1850 nM
TGI [3]: > 100 µM
GI50 [4]: 550 nM
TGI [4]: > 100 µM
GI50 [5]: 362 nM
TGI [5]: > 100 µM
GI50 [6]: 674 nM
TGI [6]: > 100 µM
GI50 [7]: 555 nM
TGI [7]: > 100 µM
GI50 [8]: 1070 nM
TGI [8]: > 100 µM
GI50 [9]: 488 nM
TGI [9]: > 100 µM
GI50 [10]: 305 nM
TGI [10]: 1030 nM
GI50 [11]: 1740 nM
TGI [11]: > 100 µM
GI50 [12]: 870 nM
TGI [12]: > 100 µM
GI50 [13]: 457 nM
TGI [13]: > 100 µM
GI50 [14]: 269 nM
TGI [14]: 816 nM
GI50 [15]: 443 nM
TGI [15]: > 100 µM
GI50 [16]: 2190 nM
TGI [16]: > 100 µM
GI50 [17]: 446 nM
TGI [17]: > 100 µM
GI50 [18]: 18.6 µM
TGI [18]: > 100 µM
GI50 [19]: 565 nM
TGI [19]: > 100 µM
GI50 [20]: 432 nM
TGI [20]: > 100 µM
GI50 [21]: 1150 nM
TGI [21]: > 100 µM
GI50 [22]: 426 nM
TGI [22]: > 100 µM
GI50 [23]: > 100 µM
TGI [23]: > 100 µM
GI50 [24]: 3670 nM
TGI [24]: > 100 µM
GI50 [25]: 1800 nM
TGI [25]: > 100 µM
GI50 [26]: 1030 nM
TGI [26]: > 100 µM
GI50 [27]: 350 nM
TGI [27]: > 100 µM
GI50 [28]: 399 nM
TGI [28]: > 100 µM
GI50 [29]: 667 nM
TGI [29]: > 100 µM
GI50 [30]: 1350 nM
TGI [30]: > 100 µM
GI50 [31]: 308 nM
TGI [31]: > 100 µM
GI50 [32]: 2590 nM
TGI [32]: > 100 µM
GI50 [33]: 506 nM
TGI [33]: > 100 µM
GI50 [34]: 637 nM
TGI [34]: > 100 µM
GI50 [35]: > 47.7 µM
TGI [35]: > 100 µM
GI50 [36]: 1230 nM
TGI [36]: 6.08 µM
GI50 [37]: 963 nM
TGI [37]: > 100 µM
TGI [38]: > 100 µM
GI50 [39]: 1.47 µM
TGI [39]: > 100 µM
GI50 [40]: 668 nM
TGI [40]: > 100 µM
GI50 [41]: 1140 nM
TGI [41]: 4.97 µM
GI50 [42]: 458 nM
TGI [42]: > 100 µM
GI50 [43]: 549 nM
TGI [43]: > 100 µM
GI50 [44]: 450 nM
TGI [44]: > 100 µM
GI50 [45]: 435 nM
TGI [45]: > 100 µM
GI50 [46]: 1150 nM
TGI [46]: 14.3 µM
GI50 [47]: 448 nM
TGI [47]: > 100000 nM
GI50 [48]: 387 nM
TGI [48]: 13.1 µM
GI50 [49]: 3220 nM
TGI [49]: > 100 µM
GI50 [50]: 495 nM
TGI [50]: > 100 µM
GI50 [51]: 1160 nM
TGI [51]: > 100000 nM
GI50 [52]: 382 nM
TGI [52]: > 100000 nM
GI50 [53]: 1130 nM
TGI [53]: > 100 µM
GI50 [54]: 718 nM
TGI [54]: > 100 µM
GI50 [55]: 779 nM
TGI [55]: > 100 µM
GI50 [56]: 821 nM
TGI [56]: > 100 µM

CN(c1ccc(Br)cc1)S(=O)(=O)c1ccc(-c2cnc(C3CC3)o2)cc1
GI50 [1]: 480 nM
TGI [1]: > 27.4 µM
GI50 [2]: 253 nM
TGI [2]: > 100 µM
GI50 [3]: 393 nM
TGI [3]: > 100 µM
GI50 [4]: 121 nM
TGI [4]: > 100 µM
GI50 [5]: 45.1 nM
TGI [5]: > 100 µM
GI50 [6]: 880 nM
TGI [6]: > 100 µM
GI50 [7]: 156 nM
TGI [7]: > 100 µM
GI50 [8]: 86.2 nM
TGI [8]: > 100 µM
GI50 [9]: 65.8 nM
TGI [9]: > 100 µM
GI50 [10]: 50 nM
TGI [10]: 700 nM
GI50 [11]: 299 nM
TGI [11]: > 100 µM
GI50 [12]: 1160 nM
TGI [12]: > 100 µM
GI50 [13]: 60.3 nM
TGI [13]: > 100 µM
GI50 [14]: 374 nM
TGI [14]: > 100000 nM
GI50 [15]: 129 nM
TGI [15]: > 100 µM
GI50 [16]: 375 nM
TGI [16]: > 100 µM
GI50 [17]: 93.9 nM
TGI [17]: > 100 µM
GI50 [18]: 0.774 µM
TGI [18]: > 100 µM
GI50 [19]: 84.6 nM
TGI [19]: > 100 µM
GI50 [20]: 279 nM
TGI [20]: > 100 µM
GI50 [21]: 271 nM
TGI [21]: > 100 µM
GI50 [22]: 71.2 nM
TGI [22]: > 100 µM
GI50 [23]: > 64.4 µM
TGI [23]: > 100 µM
GI50 [24]: 1030 nM
TGI [24]: > 100 µM
GI50 [25]: 597 nM
TGI [25]: > 100 µM
GI50 [26]: 412 nM
TGI [26]: > 100 µM
GI50 [27]: 48.5 nM
TGI [27]: > 100 µM
GI50 [28]: 41.9 nM
TGI [28]: > 100 µM
GI50 [30]: 454 nM
TGI [30]: > 100 µM
GI50 [31]: 114 nM
TGI [31]: > 52.1 µM
GI50 [32]: 286 nM
TGI [32]: > 100 µM
GI50 [57]: 30.9 nM
TGI [57]: 111 nM
GI50 [34]: 210 nM
TGI [34]: > 100 µM
GI50 [35]: 9.45 µM
TGI [35]: > 100 µM
GI50 [36]: 370 nM
TGI [36]: > 100 µM
GI50 [58]: 109 nM
TGI [58]: 5.27 µM
GI50 [37]: > 53300 nM
TGI [37]: > 100 µM
GI50 [38]: 839 nM
TGI [38]: > 100 µM
GI50 [39]: 5.33 µM
TGI [39]: > 100 µM
GI50 [40]: 397 nM
TGI [40]: > 100 µM
GI50 [41]: 2960 nM
TGI [41]: > 100 µM
GI50 [42]: 82.7 nM
TGI [42]: > 100 µM
GI50 [43]: 1340 nM
TGI [43]: > 100 µM
GI50 [44]: 73.2 nM
TGI [44]: > 40.7 µM
GI50 [45]: 225 nM
TGI [45]: > 100 µM
GI50 [47]: 142 nM
TGI [47]: 2700 nM
GI50 [48]: 32.6 nM
TGI [48]: 0.142 µM
GI50 [49]: 524 nM
TGI [49]: > 100 µM
GI50 [50]: 3840 nM
TGI [50]: > 100 µM
GI50 [51]: 209 nM
TGI [51]: 2470 nM
GI50 [52]: 85.9 nM
TGI [52]: 403 nM
GI50 [53]: 321 nM
TGI [53]: > 100 µM
GI50 [54]: 677 nM
TGI [54]: > 100 µM
GI50 [55]: 324 nM
TGI [55]: > 100 µM
GI50 [56]: 284 nM
TGI [56]: 7.52 µM
